According to article PMC9226124, “Macrocycle-stabilization of its interaction with 14-3-3 increases plasma membrane localization and activity of CFTR” (Nature Communications, 2022):
Where “and” joins values, the source holds several entries; their conditions need not be identical. Equal values may be shown once.

How the values were obtained:
[1] = target: T1, F508del-CFTR in primary CFBE cells (Homo sapiens, UniProt P13569, DEL508-508); experiment: Ussing chamber assay (short-circuit current); assay type: cell-based; parameters: short-circuit current after stimulation by forskolin and genistein: unit not given here; details: 18 h
T1 construct: endogenous in cells; host or cells: primary CFBE cells, air-liquid interface culture
Experimental: Twelve (12) validated hit compounds from the initial screening and focused validation library were tested for their effect on F508del-CFTR trafficking. Baby hamster kidney (BHK) cells expressing 3HA-tagged F508del-CFTR were treated for 24 h with 10 μM compound. After fixation of the cells, a combination of mouse monoclonal anti-HA antibody and anti-mouse IgG conjugated with FITC was used to detect F508del-CFTR that had trafficked to the plasma membrane as described previously. […] Additionally, a fluorescence imaging plate reader (FLIPR) Membrane Potential (FMP) assay was performed. This assay measures real-time membrane potential changes associated with ion channel activation and ion transporter proteins. F508del-CFTR expressing BHK cells were incubated for 24 h with 20 μM compound before treatment with the potentiator genistein, FMP dye, and activator forskolin. The fluorescence intensity is thus a measure for the function of the CFTR protein in the plasma membrane of these cells. The F508del-CFTR corrector VX-809 (lumacaftor) and the triple combination Trikafta® were used as positive controls in this assay. […] Another cellular assay was performed with the Ussing Chamber, which detects and quantifies transport of ions across epithelial tissue. F508del-CFTR expressing cystic fibrosis epithelial (CFBE) cells were treated for 18 h with 20 μM CY007424. After forskolin and genistein stimulation, the short-circuit current of the cells was measured. […]

14-3-3β/p53 peptide = target: T2, 14-3-3β/p53 peptide (Homo sapiens, UniProt P31946); experiment: FP assay of 14-3-3 partner protein peptide, p53; assay type: binding; details: CY007424 100 μM
T2 construct: His6 (cleaved yes); made in house
T2 sequence (P31946 1-246): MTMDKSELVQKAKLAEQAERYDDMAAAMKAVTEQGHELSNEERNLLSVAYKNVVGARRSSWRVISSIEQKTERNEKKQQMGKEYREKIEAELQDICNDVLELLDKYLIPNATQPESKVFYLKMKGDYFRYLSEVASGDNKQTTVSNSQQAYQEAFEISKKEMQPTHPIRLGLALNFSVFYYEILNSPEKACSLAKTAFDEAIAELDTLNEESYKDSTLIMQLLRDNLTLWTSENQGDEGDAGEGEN
Experimental: (§1) The FITC-labeled peptides were dissolved in FP buffer (10 mM HEPES pH 7.4, 150 mM NaCl, 0.1% Tween20, 1 mg/mL BSA) to a final concentration of 100 nM or 10 nM. For the dose-response assays, a 14-3-3β concentration of 10 μM was used while titrating the compounds in a two-times dilution series and, for the other assays, a dilution series of 14-3-3β was made with constant concentration of compound. The dilution series were made in 384 Corning Black Round Bottom well plates and their polarization was measured with a Tecan Infinite F500 plate reader (ex. = 485 nm, em. = 535 nm). The method of fitting of the curves was: “log(agonist) vs. response – Variable slope (four parameters)” from GraphPad Prism. The equation is Y = Bottom + (Top-Bottom)/(1 + 10^((LogEC50-X)*HillSlope)).
(§2) Supplementary Figure 2. Stabilization of the interaction between 14-3-3β and a collection of different 14-3-3 partner protein peptides by CY00742 4. […] Background polarization was subtracted from all values, n=3 technical replicates. Source data are provided as a Source Data file.
(§3) (1 picture or pasted object on this page, not shown here)

14-3-3β/BAD peptide = target: T3, 14-3-3β/BAD peptide (Homo sapiens, UniProt P31946); experiment: FP assay of 14-3-3 partner protein peptide, BAD; assay type: binding; details: for FP signal: BAD peptide, CY007424 100 μM
T3 construct: His6 (cleaved yes); made in house
T3 sequence (P31946 1-246): T2 sequence (P31946 1-246)
Experimental: as §1, §2, §3

14-3-3β/Foxo3 peptide = target: T4, 14-3-3β/Foxo3 peptide (Homo sapiens, UniProt P31946); experiment: FP assay of 14-3-3 partner protein peptide, Foxo3; assay type: binding; details: CY007424 100 μM
T4 construct: His6 (cleaved yes); made in house
T4 sequence (P31946 1-246): T2 sequence (P31946 1-246)
Experimental: as §1, §2, §3

T1 sequence (P13569 with tags, fused parts or gaps DEL508-508): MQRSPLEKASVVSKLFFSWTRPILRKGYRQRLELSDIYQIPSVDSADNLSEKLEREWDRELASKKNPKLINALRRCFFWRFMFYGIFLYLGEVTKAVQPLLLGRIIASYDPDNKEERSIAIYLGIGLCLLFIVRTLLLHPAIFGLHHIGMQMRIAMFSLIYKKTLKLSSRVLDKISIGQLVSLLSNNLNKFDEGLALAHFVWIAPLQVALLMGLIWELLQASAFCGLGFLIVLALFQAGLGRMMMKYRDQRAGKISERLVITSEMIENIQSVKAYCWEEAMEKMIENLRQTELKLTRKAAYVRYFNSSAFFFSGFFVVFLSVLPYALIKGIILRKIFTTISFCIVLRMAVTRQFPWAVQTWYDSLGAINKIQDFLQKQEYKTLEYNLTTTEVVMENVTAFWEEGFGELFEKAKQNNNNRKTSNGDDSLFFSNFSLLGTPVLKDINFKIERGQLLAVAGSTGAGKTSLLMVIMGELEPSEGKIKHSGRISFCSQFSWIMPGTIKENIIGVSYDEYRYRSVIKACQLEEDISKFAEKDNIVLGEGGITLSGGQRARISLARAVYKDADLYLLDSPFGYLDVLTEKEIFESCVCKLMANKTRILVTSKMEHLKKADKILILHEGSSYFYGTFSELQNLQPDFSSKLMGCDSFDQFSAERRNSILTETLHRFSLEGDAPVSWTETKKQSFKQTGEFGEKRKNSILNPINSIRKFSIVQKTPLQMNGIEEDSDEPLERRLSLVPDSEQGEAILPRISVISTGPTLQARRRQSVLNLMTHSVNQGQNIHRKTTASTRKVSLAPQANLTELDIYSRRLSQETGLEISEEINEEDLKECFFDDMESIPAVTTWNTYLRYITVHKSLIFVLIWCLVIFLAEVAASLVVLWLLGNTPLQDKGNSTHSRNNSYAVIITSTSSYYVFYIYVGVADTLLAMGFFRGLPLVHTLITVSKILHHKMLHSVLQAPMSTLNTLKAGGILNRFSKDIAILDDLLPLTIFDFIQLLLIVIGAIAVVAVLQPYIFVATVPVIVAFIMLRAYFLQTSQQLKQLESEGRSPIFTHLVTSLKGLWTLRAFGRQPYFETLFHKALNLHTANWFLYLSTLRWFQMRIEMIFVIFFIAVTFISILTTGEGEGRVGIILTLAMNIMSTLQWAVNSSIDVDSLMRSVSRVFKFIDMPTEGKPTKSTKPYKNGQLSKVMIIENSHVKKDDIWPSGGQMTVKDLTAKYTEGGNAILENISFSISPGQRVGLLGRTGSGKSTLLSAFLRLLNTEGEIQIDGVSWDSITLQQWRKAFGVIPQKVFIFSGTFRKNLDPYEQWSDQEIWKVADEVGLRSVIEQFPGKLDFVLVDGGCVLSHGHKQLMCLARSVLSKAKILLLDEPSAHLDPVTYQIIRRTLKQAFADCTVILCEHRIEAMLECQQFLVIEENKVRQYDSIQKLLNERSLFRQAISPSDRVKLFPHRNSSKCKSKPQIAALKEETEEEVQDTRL

What does the source list for `N=C(N)NCCCC1NCc2ccccc2Sc2ccccc2CNC(=O)C(Cc2ccc(O)cc2)NC(=O)C(CCCN)NC1=O` (stereo not drawn) [CY007424]?
short-circuit current after stimulation by forskolin and genistein ([1]; 20 μM CY07424, 1 μM VX-809, biological replicates): 1.424 and 1.182 and 1.788 (2×) and 1.697 and 2.091; conductance (short-circuit current) in words ([1]; 20 μM, forskolin and genistein stimulation): higher conductance than the DMSO control; FP signal (14-3-3β/p53 peptide; 14-3-3β 59.6 pM): 4 and 3; FP signal (14-3-3β/p53 peptide; 14-3-3β 119.2 pM): 4 and 3; FP signal (14-3-3β/p53 peptide; 14-3-3β 3.8147e-9 M): 4 and 7; FP signal (14-3-3β/p53 peptide; 14-3-3β 7.62939e-9 M): 7 and 6 and 4; FP signal (14-3-3β/p53 peptide; 14-3-3β 1.52588e-8 M): 5 and 3 and 4; FP signal (14-3-3β/p53 peptide; 14-3-3β 3.05176e-8 M): 3 and 5 and 4; FP signal (14-3-3β/p53 peptide; 14-3-3β 6.10352e-8 M): 10 and 9; FP signal (14-3-3β/p53 peptide; 14-3-3β 1.2207e-7 M): 13 and 15; FP signal (14-3-3β/p53 peptide; 14-3-3β 2.44141e-7 M): 15 and 18; FP signal (14-3-3β/p53 peptide; 14-3-3β 4.88281e-7 M): 20 and 24 and 21; FP signal (14-3-3β/p53 peptide; 14-3-3β 9.76563e-7 M): 21 and 25 and 23; FP signal (14-3-3β/p53 peptide; 14-3-3β 1.95313e-6 M): 20 and 22 and 21; FP signal (14-3-3β/p53 peptide; 14-3-3β 3.90625e-6 M): 21 and 20; FP signal (14-3-3β/p53 peptide; 14-3-3β 7.8125e-6 M): 24 and 20 and 21; FP signal (14-3-3β/p53 peptide; 14-3-3β 1.5625e-5 M): 17 and 22 and 25; FP signal (14-3-3β/p53 peptide; 14-3-3β 3.125e-5 M): 26 and 24 and 29; FP signal (14-3-3β/p53 peptide; 14-3-3β 6.25e-5 M): 31 and 32 and 34; FP signal (14-3-3β/p53 peptide; 14-3-3β 0.000125 M): 44 and 45 and 48; FP signal (14-3-3β/p53 peptide; 14-3-3β 0.00025 M): 66 and 67 and 63; stabilization of the 14-3-3/BAD peptide complex (14-3-3β/BAD peptide; 100 µM compound): some stabilization of the complex; FP signal (14-3-3β/BAD peptide; 14-3-3β 2.44141e-7 M): 59.3333; FP signal (14-3-3β/BAD peptide; 14-3-3β 4.88281e-7 M): 76.3333 and 74.3333 and 80.3333; FP signal (14-3-3β/BAD peptide; 14-3-3β 9.76563e-7 M): 77.3333 and 83.3333 and 79.3333; FP signal (14-3-3β/BAD peptide; 14-3-3β 1.95313e-6 M): 81.3333 and 79.3333 and 82.3333; FP signal (14-3-3β/BAD peptide; 14-3-3β 3.90625e-6 M): 74.3333 and 75.3333; FP signal (14-3-3β/Foxo3 peptide; 14-3-3β 3.8147e-9 M): 0.3333; FP signal (14-3-3β/Foxo3 peptide; 14-3-3β 3.05176e-8 M): 4.333 and 3.333; FP signal (14-3-3β/Foxo3 peptide; 14-3-3β 6.10352e-8 M): 7.333 and 6.333; FP signal (14-3-3β/Foxo3 peptide; 14-3-3β 1.2207e-7 M): 14.3333 and 19.3333 and 15.3333; FP signal (14-3-3β/Foxo3 peptide; 14-3-3β 2.44141e-7 M): 27.3333 and 29.3333 and 28.3333; FP signal (14-3-3β/Foxo3 peptide; 14-3-3β 4.88281e-7 M): 45.3333 and 46.3333 and 43.3333; FP signal (14-3-3β/Foxo3 peptide; 14-3-3β 9.76563e-7 M): 62.3333 and 55.3333; FP signal (14-3-3β/Foxo3 peptide; 14-3-3β 1.95313e-6 M): 71.3333 and 70.3333; FP signal (14-3-3β/Foxo3 peptide; 14-3-3β 3.90625e-6 M): 88.3333 and 86.3333 and 85.3333; FP signal (14-3-3β/Foxo3 peptide; 14-3-3β 7.8125e-6 M): 104.333 and 105.333 and 107.333; FP signal (14-3-3β/Foxo3 peptide; 14-3-3β 1.5625e-5 M): 129.333 and 126.333 and 125.333; FP signal (14-3-3β/Foxo3 peptide; 14-3-3β 3.125e-5 M): 145.333 and 149.333 and 146.333; FP signal (14-3-3β/Foxo3 peptide; 14-3-3β 6.25e-5 M): 167.333 and 166.333; FP signal (14-3-3β/Foxo3 peptide; 14-3-3β 0.000125 M): 181.333 and 182.333 and 185.333; FP signal (14-3-3β/Foxo3 peptide; 14-3-3β 0.00025 M): 195.333 and 193.333 and 196.333
